Consider one compound from patent publication US7622271B2, “Identification of aging genes through large-scale analysis” (University of Washington, priority 2004, dated 2009).

Where two headings read alike, the source gives them in different places.

This test has as its system yeast cells. The settings on record: for life span: yeast replicative life span. Here is the method: FIG. 2 illustrates replicative life span (“RLS”) analysis in yeast. […] A mother cell is a yeast cell that has produced one or more daughter cells. […] The total number of mitotic divisions completed by a given mother cell is the replicative life span for that mother cell. One indicator of senescence in yeast is the inability to produce daughter cells.
A large-scaled, life-span analysis is performed as follows. Approximately three days before initiating a life-span-determination assay, a set of 95 strains contained in a yeast alpha-haploid-deletion collection (Open Biosystems), is transferred to a 96-well plate containing YPDagar using a FX robot, so that each strain occupies one well of a 96-well plate. Concurrently, “wildtype” reference cells (BY4742) are plated within an empty well of the 96-well test plate. For 1-2 days, plated cells are allowed to grow on rich medium, such as YPD, at 30° C. Cells are patched onto life-span-measuring plates containing YPD so that approximately 12 strains are plated per plate the night, or approximately 12 hours, before initiating life-span analysis. A life-span experiment is initiated by gridding a region of the plate distal to growing cells, to which 5 cells of each strain of 12 strains are transferred by micromanipulation. Cells are incubated for two hours at 30° C. Then, virgin daughter cells of each deletion variant cell are selected, and original mother cells are removed. Such virgin daughter cells are monitored for de novo production of daughters at 2-3 hour intervals. Produced daughters are individually removed, and tabulated. Mother cells are placed back at 30° C. to allow continued growth. During evening hours, cells are moved to 4° C. so that the cell division rate is reduced to one cell division per evening. The following day, cells are placed at 30° C. to resume growth. This process is continued for a period of time, approximately two weeks, to allow cells of each variant strain to exhaust its proliferative potential. The total number of daughter cells produced by each mother variant cell is tabulated, and determined RLS values are entered into a database.

As for `CS(=N)(=O)CC[C@H](N)C(=O)O` (stereo partly drawn) [MSX, methionine sulfoximine], the life span entry reads like this: (50 uM, preliminary experiments) “significantly increases life span”; (100 uM, preliminary experiments) “significantly increases life span”; (1 mM, preliminary experiments) “significantly increases life span”; (2.5 mM, preliminary experiments) “significantly increases life span”. The “increase in mean replicative life span” value (1 mM (maximal life span extension), preliminary experiments) is recorded as 25-30%. Moreover, the “replicative life span in yeast” value (exposure of yeast cells to MSX) was “extends replicative life span”.
